Laboratory results taken from article PMC12566046, “Arylpiperazinyl-Benzocycloheptapyrrole-Carboxamides Endowed with Dual Anticancer and Antiviral Activities” (Molecules, 2025).

How the values were obtained:
[1] = test system: SK-MEL-28 (melanoma cell line); experiment: NCI-60 single-dose assay; format: cell-based, human; conditions: Homo sapiens, SK-MEL-28, read-out: growth inhibition (GI%) and cytotoxicity (negative values)
Method in brief: (§1)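 Human cancer lines from nine tumour types in the NCI-60 panel were exposed to one compound dose, and cytotoxic activity was recorded for each line.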

[2] = test system: RPMI-8226 (leukemia cell line); experiment: NCI-60 single-dose assay; format: cell-based, human
Method in brief: as §1

[3] = test system: HT29 (colon cancer cell line); experiment: NCI-60 single-dose assay; format: cell-based, human
Method in brief: as §1

[4] = test system: HCT-116 (colon cancer cell line); experiment: NCI-60 single-dose assay; format: cell-based, human
Method in brief: as §1

[5] = test system: UACC-62 (melanoma cell line); experiment: NCI-60 single-dose assay; format: cell-based, human; conditions: Homo sapiens, UACC-62, read-out: growth inhibition (GI%) and cytotoxicity (negative values)
Method in brief: as §1

[6] = test system: NCI-H23 (non-small cell lung cancer cell line); experiment: NCI-60 single-dose assay; format: cell-based, human
Method in brief: as §1

[7] = test system: UACC-257 (melanoma cell line); experiment: NCI-60 single-dose assay; format: cell-based, human; conditions: Homo sapiens, UACC-257, read-out: growth inhibition (GI%) and cytotoxicity (negative values)
Method in brief: as §1

[8] = test system: MOLT-4 (leukemia cell line); experiment: NCI-60 single-dose assay; format: cell-based, human
Method in brief: as §1

[9] = test system: HL-60(TB) (leukemia cell line); experiment: NCI-60 single-dose assay; format: cell-based, human; conditions: Homo sapiens, HL-60, read-out: growth inhibition (GI%) and cytotoxicity (negative values)
[10] = test system: CAKI-1 (renal cancer cell line); experiment: NCI-60 single-dose assay; format: cell-based, human
Method in brief: as §1

[11] = test system: NCI-H460 (non-small cell lung cancer cell line); experiment: NCI-60 single-dose assay; format: cell-based, human
Method in brief: as §1

M14 (melanoma cell line) = experiment: NCI-60 single-dose assay; format: cell-based, human; conditions: Homo sapiens, M14, read-out: growth inhibition (GI%) and cytotoxicity (negative values)
Method in brief: as §1

[12] = test system: 786-0 (renal cancer cell line); experiment: NCI-60 single-dose assay; format: cell-based, human
Method in brief: as §1

[13] = test system: RXF 393 (renal cancer cell line); experiment: NCI-60 single-dose assay; format: cell-based, human; conditions: Homo sapiens, RXF 393, read-out: growth inhibition (GI%) and cytotoxicity (negative values)
Method in brief: as §1

SR (leukemia cell line) = experiment: NCI-60 single-dose assay; format: cell-based, human; conditions: Homo sapiens, read-out: growth inhibition (GI%) and cytotoxicity (negative values)
Method in brief: as §1

[14] = test system: MDA-MB-231/ATCC (breast cancer cell line); experiment: NCI-60 single-dose assay; format: cell-based, human
Method in brief: as §1

[15] = test system: SN12C (renal cancer cell line); experiment: NCI-60 single-dose assay; format: cell-based, human
Method in brief: as §1

[16] = test system: HCT-15 (colon cancer cell line); experiment: NCI-60 single-dose assay; format: cell-based, human
Method in brief: as §1

[17] = test system: HCC-2998 (colon cancer cell line); experiment: NCI-60 single-dose assay; format: cell-based, human; conditions: Homo sapiens, HCC 2998, read-out: growth inhibition (GI%) and cytotoxicity (negative values)
Method in brief: as §1

[18] = test system: SW-620 (colon cancer cell line); experiment: NCI-60 single-dose assay; format: cell-based, human
Method in brief: as §1

[19] = test system: MDA-MB-468 (breast cancer cell line); experiment: NCI-60 single-dose assay; format: cell-based, human; conditions: Homo sapiens, MDA-MB-468, read-out: growth inhibition (GI%) and cytotoxicity (negative values)
Method in brief: as §1

[20] = test system: BT-549 (breast cancer cell line); experiment: NCI-60 single-dose assay; format: cell-based, human
Method in brief: as §1

[21] = test system: UO-31 (renal cancer cell line); experiment: NCI-60 single-dose assay; format: cell-based, human
Method in brief: as §1

[22] = test system: MCF-7 (breast cancer cell line); experiment: NCI-60 single-dose assay; format: cell-based, human
Method in brief: as §1

[23] = test system: MDA-MB-435 (melanoma cell line); experiment: NCI-60 single-dose assay; format: cell-based, human; conditions: Homo sapiens, MDA-MB-435, read-out: growth inhibition (GI%) and cytotoxicity (negative values)
Method in brief: as §1

[24] = test system: SK-MEL-2 (melanoma cell line); experiment: NCI-60 single-dose assay; format: cell-based, human; conditions: Homo sapiens, SK-MEL-2, read-out: growth inhibition (GI%) and cytotoxicity (negative values)
Method in brief: as §1

[25] = test system: NCI-H226 (non-small cell lung cancer cell line); experiment: NCI-60 single-dose assay; format: cell-based, human
Method in brief: as §1

[26] = test system: EKVX (non-small cell lung cancer cell line); experiment: NCI-60 single-dose assay; format: cell-based, human
Method in brief: as §1

[27] = test system: KM12 (colon cancer cell line); experiment: NCI-60 single-dose assay; format: cell-based, human
Method in brief: as §1

[28] = test system: MALME-3M (melanoma cell line); experiment: NCI-60 single-dose assay; format: cell-based, human; conditions: Homo sapiens, Malme-3M, read-out: growth inhibition (GI%) and cytotoxicity (negative values)
Method in brief: as §1

[29] = test system: LOX IMVI (melanoma cell line); experiment: NCI-60 single-dose assay; format: cell-based, human; conditions: LOX IMVI
Method in brief: as §1

[30] = test system: COLO 205 (colon cancer cell line); experiment: NCI-60 single-dose assay; format: cell-based, human; conditions: Homo sapiens, COLO 205, read-out: growth inhibition (GI%) and cytotoxicity (negative values)
Method in brief: as §1

[31] = test system: T-47D (breast cancer cell line); experiment: NCI-60 single-dose assay; format: cell-based, human
Method in brief: as §1

[32] = test system: CCRF-CEM (leukemia cell line); experiment: NCI-60 single-dose assay; format: cell-based, human
Method in brief: as §1

[33] = test system: IAV strain A/PR/8/34 (H1N1); experiment: microbe, parasite or virus in culture; conditions: Influenza A virus, MDCK, read-out: IAV/MDCK EC50
[34] = test system: NCI-H522 (non-small cell lung cancer cell line); experiment: NCI-60 single-dose assay; format: cell-based, human; conditions: NCI-H522; 10^−5 M, single dose
Method in brief: as §1

[35] = Homo sapiens, read-out: growth inhibition (GI%) and cytotoxicity (negative values)

Compound: N#Cc1ccccc1N1CCN(CCNC(=O)c2c(Cl)[nH]c3c2CCCc2ccccc2-3)CC1 [Compound 18, 2-Chloro-N-(2-(4-(2-cyanophenyl)piperazin-1-yl)ethyl)-1,4,5,6-tetrahydrobenzo[6,7]cyclohepta[1,2-b]pyrrole-3-carboxamide]
- inhibition at 10 µM [1]: < 60%
- inhibition at 10 µM ([2]; Homo sapiens, RPMI-8226, read-out: growth inhibition (GI%) and cytotoxicity (negative values)): 69.1%
- inhibition at 10 µM ([3]; Homo sapiens, HT-29, read-out: growth inhibition (GI%) and cytotoxicity (negative values)): 64.2%
- inhibition at 10 µM ([4]; Homo sapiens, HCT-116, read-out: growth inhibition (GI%) and cytotoxicity (negative values)): 70.1%
- inhibition at 10 µM [5]: < 60%
- inhibition at 10 µM ([6]; Homo sapiens, NCI-H23, read-out: growth inhibition (GI%) and cytotoxicity (negative values)): < 60%
- inhibition at 10 µM [7]: < 60%
- inhibition at 10 µM ([8]; Homo sapiens, MOLT-4, read-out: growth inhibition (GI%) and cytotoxicity (negative values)): 81.8%
- inhibition at 10 µM [9]: 74.3%
- inhibition at 10 µM ([10]; Homo sapiens, CAKI-1, read-out: growth inhibition (GI%) and cytotoxicity (negative values)): 62.7%
- inhibition at 10 µM ([11]; Homo sapiens, NCI-H460, read-out: growth inhibition (GI%) and cytotoxicity (negative values)): < 60%
- inhibition at 10 µM (M14 (melanoma cell line)): < 60%
- inhibition at 10 µM ([12]; Homo sapiens, 786-0, read-out: growth inhibition (GI%) and cytotoxicity (negative values)): < 60%
- inhibition at 10 µM [13]: < 60%
- inhibition at 10 µM (SR (leukemia cell line)): 74.2%
- inhibition at 10 µM ([14]; Homo sapiens, MDA-MB-231, read-out: growth inhibition (GI%) and cytotoxicity (negative values)): < 60%
- inhibition at 10 µM [15, 35]: < 60%
- inhibition at 10 µM ([16]; Homo sapiens, HCT-15, read-out: growth inhibition (GI%) and cytotoxicity (negative values)): 61.3%
- inhibition at 10 µM [17]: < 60%
- inhibition at 10 µM ([18]; Homo sapiens, SW-620, read-out: growth inhibition (GI%) and cytotoxicity (negative values)): < 60%
- inhibition at 10 µM [19]: 98.7%
- inhibition at 10 µM ([20]; Homo sapiens, BT-549, read-out: growth inhibition (GI%) and cytotoxicity (negative values)): 78.3%
- inhibition at 10 µM ([21]; Homo sapiens, UO-31, read-out: growth inhibition (GI%) and cytotoxicity (negative values)): 67%
- inhibition at 10 µM ([22]; Homo sapiens, MCF7, read-out: growth inhibition (GI%) and cytotoxicity (negative values), MCF-7, 10^−5 M): 78.5%
- inhibition at 10 µM [23]: 64.5%
- inhibition at 10 µM [24]: < 60%
- inhibition at 10 µM ([25]; Homo sapiens, NCI-H226, read-out: growth inhibition (GI%) and cytotoxicity (negative values)): < 60%
- inhibition at 10 µM [26, 35]: 92.8%
- inhibition at 10 µM ([27]; Homo sapiens, KM12, read-out: growth inhibition (GI%) and cytotoxicity (negative values)): < 60%
- inhibition at 10 µM [28]: < 60%
- inhibition at 10 µM [29, 35]: < 60%
- inhibition at 10 µM [30]: < 60%
- inhibition at 10 µM ([31]; Homo sapiens, T47D, read-out: growth inhibition (GI%) and cytotoxicity (negative values)): 71.8%
- inhibition at 10 µM [32, 35]: < 60%
- EC50 [33]: 49.4 µM

Compound: N-(3-(4-Benzylpiperazin-1-yl)propyl)-2-chloro-1,4,5,6-tetrahydrobenzo[6,7]cyclohepta[1,2-b]pyrrole-2-carboxamide [Compound 11]
- growth inhibition (GI%) and cytotoxicity (negative values) ([2]; RPMI-8226, 10^−5 M, single dose): 92.04%
- growth inhibition (GI%) and cytotoxicity (negative values) ([3]; HT29, 10^−5 M, single dose): 91.03%
- growth inhibition (GI%) and cytotoxicity (negative values) ([4]; HCT-116, 10^−5 M, single dose): 96.84%
- growth inhibition (GI%) and cytotoxicity (negative values) ([6]; NCI-H23, 10^−5 M, single dose): – (GI% values < 60% or no cytotoxicity)
- growth inhibition (GI%) and cytotoxicity (negative values) ([8]; MOLT-4, 10^−5 M, single dose): 99.74%
- growth inhibition (GI%) and cytotoxicity (negative values) ([10]; CAKI-1, 10^−5 M, single dose): 91.53%
- growth inhibition (GI%) and cytotoxicity (negative values) ([11]; NCI-H460, 10^−5 M, single dose): 98.58%
- growth inhibition (GI%) and cytotoxicity (negative values) ([12]; 786-0, 10^−5 M, single dose): 72.88%
- growth inhibition (GI%) and cytotoxicity (negative values) ([14]; MDA-MB-231/ATCC, 10^−5 M, single dose): 61.71%
- growth inhibition (GI%) and cytotoxicity (negative values) ([15]; 10^−5 M, single dose): – (GI% values < 60% and no cytotoxicity)
- growth inhibition (GI%) and cytotoxicity (negative values) ([16]; HCT-15, 10^−5 M, single dose): 84.78%
- growth inhibition (GI%) and cytotoxicity (negative values) ([18]; SW-620, 10^−5 M, single dose): 86.67%
- growth inhibition (GI%) and cytotoxicity (negative values) ([20]; BT-549, 10^−5 M, single dose): – (GI% values < 60% and no cytotoxicity)
- growth inhibition (GI%) and cytotoxicity (negative values) [34]: 82.24%
- growth inhibition (GI%) and cytotoxicity (negative values) ([21]; UO-31, 10^−5 M, single dose): 63.12%
- growth inhibition (GI%) and cytotoxicity (negative values) ([22]; MCF-7, 10^−5 M): 90.34%
- growth inhibition (GI%) and cytotoxicity (negative values) ([25]; NCI-H226, 10^−5 M, single dose): 64.87%
- growth inhibition (GI%) and cytotoxicity (negative values) ([26]; 10^−5 M, single dose): 70.83%
- growth inhibition (GI%) and cytotoxicity (negative values) ([27]; KM12, 10^−5 M, single dose): 78.00%
- growth inhibition (GI%) and cytotoxicity (negative values) ([29]; 10^−5 M, single dose): 99.73%
- growth inhibition (GI%) and cytotoxicity (negative values) ([31]; T-47D, 10^−5 M, single dose): 66.07%
- growth inhibition (GI%) and cytotoxicity (negative values) ([32]; 10^−5 M, single dose): 76.14%
